From patent EP4635488A1, “PHARMACEUTICAL COMPOSITION FOR PREVENTING OR TREATING BONE DISEASES” (Industry Foundation of Chonnam National University, priority 2022, dated 2024)

What follows are compounds tested on OVX-induced osteoporosis mouse model (assay: OVX-induced osteoporosis mouse model (micro-CT, body weight)). Details: 20 mg/kg intraperitoneally once daily for 4 weeks after surgery; compared with the OVX group.
Format: in vivo, C57BL/6 female mice
Protocol: Specific pathogen-free facilities were used to grow mice. To investigate the effects of 25-KR-03 in vivo, the inventors established an OVX-induced osteoporosis mouse model as previously described. Seven-week-old C57BL/6 female mice were divided into four groups (Sham, OVX, 25-KR-03, and PMSA-3-Ac). Among them, the OVX, 25-KR-03, and PMSA-3-Ac groups underwent OVX surgery.
After a 1-week recovery period, mice were intraperitoneally injected with 25-KR-03 or PMSA-3-Ac (20 mg/kg, dissolved in a mixture of 10 % Tween 80 and 10% DMSO) once daily for 4 weeks. The sham and control (OVX) groups received equal volumes of the mixture of 10 % Tween 80 and 10% DMSO once daily for 4 weeks. Body weights of the mice were measured weekly. When the mice were euthanized, the femurs were isolated and fixed in 4.0% paraformaldehyde for micro-computed tomography (micro-CT) analysis as previously performed.
Micro-CT scanning was performed as in previous studies. The Quantum GX Micro-CT imaging system (PerkinElmer, Hopkinton, MA, USA) was used at the Korea Basic Science Institute (Gwangju, Korea).
With `CC(=O)c1cccc(N(CC(=O)Nc2ccccc2Sc2ccccc2)S(C)(=O)=O)c1` [PMSA-3-Ac, reference compound] the “prevention of bone loss (Tb.Th and BMD values, micro-CT of femur)” value was “no significant effect”.

The compounds below were run on RANKL-induced BMM (assay: In vitro osteoclast formation assay (TRAP staining / TRAP activity)). Details: 1 µM; osteoclast differentiation in RANKL-induced BMM; mean ± SD from at least three experiments.
Format: cell-based, C57/BL6 mice
Parameters: key to Inhibition rate (%): "Inactive" indicates that the % inhibition is less than 30%
Protocol: Bone marrow cells (BMC) were obtained from 8-week-old female C57/BL6 mice by washing femurs and tibias with α-MEM. BMCs were then cultured overnight in full α-MEM containing 10% FBS, 100 U/mL penicillin, and 100 µg/mL streptomycin. Non-attached cells were collected and cultured with M-CSF (30 ng/ mL) for 3 days, and then the attached cells were used as BMM. All animal experiments were approved by Chonnam National University IACUC (approval number: CNU IACUC-YB-2019-49).
To generate osteoclasts, BMMs were harvested and cultured in a complete medium containing 30 ng/mL M-CSF and 50 ng/mL RANKL with or without compounds for approximately 4 days to obtain mature osteoclasts. Differentiated osteoclasts were fixed with 4% formalin for 15 minutes, and then the cells were stained using a TRAP staining kit. The spread of osteoclast areas could be observed under the microscope. The viability of BMM (1 × 10^4 cells/well) was assessed in a 96-well plate using a cell viability assay kit as previously described.
In the case of `COc1ccccc1OC(=O)c1cccc(NCC(=O)Nc2ccccc2Sc2ccccc2)c1` [Compound 25-KR-20, 2-Methoxyphenyl 3-((2-oxo-2-((2-(phenylthio)phenyl)amino)ethyl)amino) benzoate], the “Inhibition rate (%)” value is reported as 52.27±1.11%.
`COc1ccc(OC(=O)c2cccc(NCC(=O)Nc3ccccc3Sc3ccccc3)c2)cc1` [Compound 25-KR-21, 4-Methoxyphenyl 3-((2-oxo-2-((2-(phenylthio)phenyl)amino)ethyl)amino) benzoate] was tested, and the “Inhibition rate (%)” value was 50.91 ± 1.93%.
For `O=C(CNc1cccc(C(=O)Oc2ccc(Cl)cc2)c1)Nc1ccccc1Sc1ccccc1` [Compound 25-KR-25, 4-Chlorophenyl 3-((2-oxo-2-((2-(phenylthio)phenyl)amino)ethyl)amino) benzoate], the “Inhibition rate (%)” value was 43.18 ± 2.32%.
In the case of `COC(=O)c1cccc(N(CC(=O)Nc2ccccc2Sc2ccccc2)S(=O)(=O)c2ccc(C)cc2)c1` [Compound 25-KR-26, Methyl 3-((4-methyl-N-(2-oxo-2-((2-(phenylthio)phenyl)amino)ethyl)phenyl)sulfonamido)benzoate], the “Inhibition rate (%)” value is reported as 49.09 ± 2.32%.

Same assay, conditions: 2 µM; osteoclast differentiation in RANKL-induced BMM; mean ± SD from at least three experiments
In the case of `COC(=O)c1cccc(N(CC(=O)Nc2ccccc2Sc2ccccc2)S(C)(=O)=O)c1` [Compound 25-KR-01, Methyl 3-(N-(2-oxo-2-((2-(phenylthio)phenyl)amino)ethyl)methylsulfonamido) benzoate], the “Inhibition rate (%)” value is reported as “Inactive ^c”.
In the case of `CS(=O)(=O)N(CC(=O)Nc1ccccc1Sc1ccccc1)c1cccc(C(=O)O)c1` [Compound 25-KR-02, 3-(N-(2-oxo-2-((2-(phenylthio)phenyl)amino)ethyl)methylsulfonamido)benzoic acid], the “Inhibition rate (%)” value is reported as “Inactive ^c”.
`CC(C)(C)c1ccc(OC(=O)c2cccc(N(CC(=O)Nc3ccccc3Sc3ccccc3)S(C)(=O)=O)c2)cc1` [Compound 25-KR-04, 4-(tert-butyl)phenyl 3-(N-(2-oxo-2-((2-(phenylthio)phenyl)amino)ethyl)methylsulfonamido)benzoate] was tested, and the “Inhibition rate (%)” value was “Inactive ^c”.
For `Cc1ccccc1OC(=O)c1cccc(N(CC(=O)Nc2ccccc2Sc2ccccc2)S(C)(=O)=O)c1` [Compound 25-KR-05, o -Tolyl 3-(N -(2-oxo-2-((2-(phenylthio)phenyl)amino)ethyl)methylsulfonamido) benzoate], the “Inhibition rate (%)” value was “Inactive ^c”.
`Cc1cccc(OC(=O)c2cccc(N(CC(=O)Nc3ccccc3Sc3ccccc3)S(C)(=O)=O)c2)c1` [Compound 25-KR-06, m -Tolyl 3-(N-(2-oxo-2-((2-(phenylthio)phenyl)amino)ethyl)methylsulfonamido)benzoate] was tested, and the “Inhibition rate (%)” value was “Inactive ^c”.
In the case of `Cc1ccc(OC(=O)c2cccc(N(CC(=O)Nc3ccccc3Sc3ccccc3)S(C)(=O)=O)c2)cc1` [Compound 25-KR-07, p -Tolyl 3-(N-(2-oxo-2-((2-(phenylthio)phenyl)amino)ethyl)methylsulfonamido) benzoate], the “Inhibition rate (%)” value is reported as “Inactive ^c”.
With `CS(=O)(=O)N(CC(=O)Nc1ccccc1Sc1ccccc1)c1cccc(C(=O)Oc2ccccc2C#N)c1` [Compound 25-KR-11, 2-Cyanophenyl 3-(N-(2-oxo-2-((2-(phenylthio)phenyl)amino)ethyl)methylsulfonamido)benzoate] the “Inhibition rate (%)” value was “Inactive ^c”.
For `CS(=O)(=O)N(CC(=O)Nc1ccccc1Sc1ccccc1)c1cccc(C(=O)Oc2cccc([N+](=O)[O-])c2)c1` [Compound 25-KR-12, 3-Nitrophenyl 3-(N-(2-oxo-2-((2-(phenylthio)phenyl)amino)ethyl)methylsulfonamido)benzoate], the “Inhibition rate (%)” value was “Inactive ^c”.
With `CS(=O)(=O)N(CC(=O)Nc1ccccc1Sc1ccccc1)c1cccc(C(=O)Oc2ccc([N+](=O)[O-])cc2)c1` [Compound 25-KR-13, 4-Nitrophenyl 3-(N-(2-oxo-2-((2-(phenylthio)phenyl)amino)ethyl)methylsulfonamido)benzoate] the “Inhibition rate (%)” value was “Inactive ^c”.
For `CS(=O)(=O)N(CC(=O)Nc1ccccc1Sc1ccccc1)c1cccc(C(=O)Oc2cccc3ccccc23)c1` [Compound 25-KR-14, Naphthalen-1-yl 3-(N-(2-oxo-2-((2-(phenylthio)phenyl)amino)ethyl)methylsulfonamido)benzoate], the “Inhibition rate (%)” value was “Inactive ^c”.
With `CS(=O)(=O)N(CC(=O)Nc1ccccc1Sc1ccccc1)c1cccc(C(=O)Oc2ccc3ccccc3c2)c1` [Compound 25-KR-15, Naphthalen-2-yl 3-(N-(2-oxo-2-((2-(phenylthio)phenyl)amino)ethyl)methylsulfonamido)benzoate] the “Inhibition rate (%)” value was “Inactive ^c”.
`CC(C)(C)[Si](C)(C)Oc1cccc(N(CC(=O)Nc2ccccc2Sc2ccccc2)S(C)(=O)=O)c1` [Compound 25-KR-16, 2-(N-(3-((tert-butyldimethylsilyl)oxy)phenyl)methylsulfonamido)-N-(2-(phenylthio)phenyl)acetamide] was tested, and the “Inhibition rate (%)” value was “Inactive ^c”.
With `CS(=O)(=O)N(CC(=O)Nc1ccccc1Sc1ccccc1)c1cccc(O)c1` [Compound 25-KR-17, 2-(N-(3-hydroxyphenyl)methylsulfonamido)-N-(2-(phenylthio)phenyl)acetamide] the “Inhibition rate (%)” value was “Inactive ^c”.
In the case of `CC(C)(C)[Si](C)(C)Oc1cccc(NCC(=O)Nc2ccccc2Sc2ccccc2)c1` [Compound 25-KR-18, 2-((3-((tert-butyldimethylsilyl)oxy)phenyl)amino)-N-(2-(phenylthio)phenyl)acetamide], the “Inhibition rate (%)” value is reported as “Inactive ^c”.
In the case of `O=C(CNc1cccc(O)c1)Nc1ccccc1Sc1ccccc1` [Compound 25-KR-19, 2-((3-Hydroxyphenyl)amino)-N-(2-(phenylthio)phenyl)acetamide], the “Inhibition rate (%)” value is reported as “Inactive ^c”.

Same assay, conditions: Mus musculus; 1 µM; osteoclast differentiation in RANKL-induced BMM; mean ± SD from at least three experiments; read-out: Inhibition rate (%)
With `Cc1ccccc1OC(=O)c1cccc(NCC(=O)Nc2ccccc2Sc2ccccc2)c1` [Compound 25-KR-22, o-Tolyl 3-((2-oxo-2-((2-(phenylthio)phenyl)amino)ethyl)amino)benzoate] the inhibition at 1 µM was 47.7 ± 11.4%.
Work on `Cc1cccc(OC(=O)c2cccc(NCC(=O)Nc3ccccc3Sc3ccccc3)c2)c1` [Compound 25-KR-23, m-Tolyl 3-((2-oxo-2-((2-(phenylthio)phenyl)amino)ethyl)amino)benzoate] yielded an inhibition at 1 µM of 46.8 ± 13.4%.
Compound `Cc1ccc(OC(=O)c2cccc(NCC(=O)Nc3ccccc3Sc3ccccc3)c2)cc1` [Compound 25-KR-24, p-Tolyl 3-((2-oxo-2-((2-(phenylthio)phenyl)amino)ethyl)amino)benzoate] has an inhibition at 1 µM of 36.8 ± 7.82%.
`O=C(CNc1cccc(C(=O)O)c1)Nc1ccccc1Sc1ccccc1` [Compound 25-KR-27, 3-((2-oxo-2-((2-(phenylthio)phenyl)amino)ethyl)amino)benzoic acid] gave an inhibition at 1 µM of 31.8 ± 1.93%.

Same assay, conditions: Mus musculus; 2 µM; osteoclast differentiation in RANKL-induced BMM; mean ± SD from at least three experiments; read-out: Inhibition rate (%)
In the case of `NCCCC(O)(P(=O)(O)O)P(=O)(O)O` [Alendronate, reference compound], the inhibition at 2 µM is reported as 41.2 ± 8.68%.
Work on `COc1ccccc1OC(=O)c1cccc(N(CC(=O)Nc2ccccc2Sc2ccccc2)S(C)(=O)=O)c1` [Compound 25-KR-08, 2-Methoxyphenyl 3-(N-(2-oxo-2-((2-(phenylthio)phenyl)amino)ethyl)methylsulfonamido)benzoate] yielded an inhibition at 2 µM of 37.6 ± 8.21%.
`COc1ccc(OC(=O)c2cccc(N(CC(=O)Nc3ccccc3Sc3ccccc3)S(C)(=O)=O)c2)cc1` [Compound 25-KR-09, 4-Methoxyphenyl 3-(N-(2-oxo-2-((2-(phenylthio)phenyl)amino)ethyl)methylsulfonamido)benzoate] showed an inhibition at 2 µM of 45.8 ± 3.65%.
`CS(=O)(=O)N(CC(=O)Nc1ccccc1Sc1ccccc1)c1cccc(C(=O)Oc2ccc(Cl)cc2)c1` [Compound 25-KR-10, 4-Chlorophenyl 3-(N-(2-oxo-2-((2-(phenylthio)phenyl)amino)ethyl)methylsulfonamido)benzoate] was tested, and the inhibition at 2 µM was 47.4 ± 9.79%.

Same assay, conditions: SAR summary in words of Table 2 (2 µM)
`COc1ccccc1OC(=O)c1cccc(N(CC(=O)Nc2ccccc2Sc2ccccc2)S(C)(=O)=O)c1` [Compound 25-KR-08, 2-Methoxyphenyl 3-(N-(2-oxo-2-((2-(phenylthio)phenyl)amino)ethyl)methylsulfonamido)benzoate] was tested, and the “inhibitory effects on osteoclast formation” value (from here on “inhibitory effects”) was “moderate inhibitory effects”.
In the case of `COc1ccc(OC(=O)c2cccc(N(CC(=O)Nc3ccccc3Sc3ccccc3)S(C)(=O)=O)c2)cc1` [Compound 25-KR-09, 4-Methoxyphenyl 3-(N-(2-oxo-2-((2-(phenylthio)phenyl)amino)ethyl)methylsulfonamido)benzoate], the “inhibitory effects” value is reported as “moderate inhibitory effects”.
With `CS(=O)(=O)N(CC(=O)Nc1ccccc1Sc1ccccc1)c1cccc(C(=O)Oc2ccc(Cl)cc2)c1` [Compound 25-KR-10, 4-Chlorophenyl 3-(N-(2-oxo-2-((2-(phenylthio)phenyl)amino)ethyl)methylsulfonamido)benzoate] the “inhibitory effects” value was “moderate inhibitory effects”.
